Source: US20190077856A1, “METHOD OF TREATING DISEASES USING KINASE MODULATORS” (Memorial Sloan Kettering Cancer Center, priority 2016, published 2019)

Key:
TPC1 [1] = test: Binding of TCR mimic antibody ESK and ADCC (chromium release) with ESK-M; type: cell-based, human
Protocol: FIG. 18A-FIG. 18B: AST487 increased cytolytic activity of TCRm antibody. FIG. 18A: TPC1 cells were treated with different doses of AST487 and binding of ESK (a TCR mimic monoclonal antibody specific for the WT1 RMF peptide/HLA-A02:01 complex) was measured. FIG. 18B: With increase of ESK binding in vitro, the effect on cytolytic activity of ESK was measured with an ADCC assay. TPC1 cells were treated with AST487 or DMSO for 72 hours and then incubated with chromium. Peripheral blood mononuclear cells (PBMCs), chromium labeled target cells, and ESK-M (or an isotype) were mixed and incubated for 5 hours. Varying effector to target ratios were used. Afterwards, chromium levels in the media were measured to determine percent specific lysis.
For FIG. 18A, TPC1 cells were treated with different doses of AST487 and binding of ESK (a TCR mimic monoclonal antibody specific for the WT1 RMF peptide/HLA-A02:01 complex) was measured. For FIG. 18B, with increase of ESK binding in vitro, the effect on cytolytic activity of ESK was measured with an antibody-dependent cell-mediated cytotoxicity (ADCC) assay. TPC1 cells were treated with AST487 or DMSO for 72 hours and then incubated with chromium. PBMCs, chromium labeled target cells, and ESK-M (or an isotype) were mixed and incubated for 5 hours. […] Afterwards, chromium levels in the media were measured to determine percent specific lysis.

pRET and pERK = test: Western blot for pRET and pERK after 24 hours; type: cell-based, human; details: TPC1
Protocol: (§1) FIG. 14A-FIG. 14C: TPC1 (a papillary thyroid cancer cell line) treated with AST487 increased HLA surface expression. FIG. 14A and FIG. 14B: TPC1 cells were seeded and treated with different doses of AST487 (a RET inhibitor). After 72 hours, cells were harvested and surface HLA-A02 and HLA-ABC were measured through flow cytometry with BB7 and W6/32 staining antibodies, respectively. FIG. 14C: After 24 hours of AST487 incubation, cells were lysed and a western blot was performed to show a decrease in pRET and pERK with AST487 treatment.
(§2) The effect of AST487, a RET inhibitor, on TPC1 (a papillary thyroid cancer cell line) was investigated. TPC1 cells were seeded and treated with different doses of AST487. After 72 hours, cells were harvested and surface HLA-A02 and HLA-ABC were measured through flow cytometry with BB7 and W6/32 staining antibodies, respectively (FIG. 14A-FIG. 14B).

TPC1 [2] = test: Surface HLA-A02 and HLA-ABC by flow cytometry (BB7, W6/32) after 72 hours; type: cell-based, human; details: different doses
Protocol: as §1, §2

TPC1 cells = test: In vivo treatment of subcutaneous TPC1 tumors, flow cytometry of tumor cells; set-up: species or system NRG mice; details: 7 days of treatment
Protocol: FIG. 19A-FIG. 19B: AST487 treatment in vivo increased surface HLA expression levels. FIG. 19A: NRG mice were injected with TPC1 cells and treated with vehicle (control) or AST487. BB7 and W6/32 binding on TPC1 cells were measured, and are shown in FIG. 19A (normalized to vehicle-treated mice) for vehicle-treated, 10 mg/kg AST487-treated, and 35 mg/kg AST487-treated mice. […] PD-L1 levels were measured as binding to anti-PD-L1 antibody.
NRG mice (Jackson labs NOD-Rag 1 null IL2rgnull, NOD rag gamma) were injected with TPC1 cells subcutaneously, and then treated 4 weeks later with vehicle (phosphate buffered saline) or with AST487 (a RET inhibitor) at a dose of 10 mg/kg or 35 mg/kg. After 7 days of treatment, tumors were harvested, and tumor cells were assessed for binding to BB7 (a monoclonal antibody specific to HLA-A02) and binding to W6/32 (a monoclonal antibody specific to pan HLA-ABC). Tumor cells were GFP-labeled and were distinguished from stroma and normal cells by gating for GFP in flow cytometry. […] One mouse in the vehicle control group was excluded as an outlier with 99% confidence interval as determined by Q test. PD-L1 expression by the tumor was also assessed by measuring binding of anti-PD-L1 antibody.

TPC1 [3] = test: qPCR of transcript levels of HLA and antigen processing machinery; type: cell-based, human; details: 24 or 48 hours
Protocol: Using qPCR, transcript levels of HLA and antigen processing machinery were measured after TPC1 cells were treated with AST487 for 24 (FIG. 17A) or 48 hours (FIG. 17B). Upregulation of mRNA levels for HLA and antigen processing machinery were seen.
Real-Time PCR: Total RNA was extracted using Qiagen RNA Easy Plus (Qiagen; #74134) after cells were treated for 48 hrs with indicated inhibitor. RNA was converted into cDNA using gScript™ cDNA SuperMix (Quanta Biosciences Gaithersburg, Md. USA). Real-time assays were conducted using TaqMan real-time probes. (Life Technlogies) for human HLA-A (Hs01058806_gl), B2M (Hs00187842_ml), TAP1 (Hs00388677_ml), TAP2 (Hs00241060_ml), and TBP (Hs00427620_ml) using 50 ng cDNA. For assessment of gene expression using RT-PCR PerfeCTa® FastMix® II (Quanta), reactions were carried out in triplicates using standard thermocycling conditions (2 minutes at 50° C., 10 minutes at 95° C., 40 cycles of 15 seconds at 95° C., and 1 minute at 60° C.). TBP was used as internal control and ΔΔCT method was used for relative mRNA calculations.
Next, using qPCR, transcript levels of HLA and antigen processing machinery were measured after TPC1 cells were treated with AST487 for 24 (FIG. 17, left panel) or 48 hours (FIG. 17, right panel). Upregulation of mRNA levels for HLA and antigen processing machinery were seen.

TT cells = test: Surface HLA-A02 and HLA-ABC by flow cytometry (BB7, W6/32) after 72 hours; type: cell-based, human; details: different doses
Protocol: FIG. 15A and FIG. 15B: TT cells were seeded and treated with different doses of AST487 (a RET inhibitor). After 72 hours, cells were harvested and surface HLA-A02 and HLA-ABC were measured through flow cytometry with BB7 and W6/32 staining antibodies, respectively. FIG. 15C: After 24 hours of AST487 incubation, cells were lysed and a western blot was performed. TT cells are derived from a medullary thyroid cancer that has a RET point mutation, as opposed to the TPC1 cells, which are derived from a papillary thyroid cancer and have a RET/PTC1 fusion.
The same analysis was performed in TT cells (a medullary thyroid cancer cell line). TT cells are derived from a medullary thyroid cancer that has a RET point mutation, as opposed to TPC1 cells, which are derived from a papillary thyroid cancer and have a RET/PTC1 fusion. TT cells were seeded and treated with different doses of AST487. After 72 hours, cells were harvested and surface HLA-A02 and HLA-ABC were measured through flow cytometry with BB7 and W6/32 staining antibodies, respectively (FIG. 15A-FIG. 15B). After 24 hours of AST487 incubation, cells were lysed and a western blot was performed (FIG. 15C).

**Q.** How did the “cytolytic activity of TCRm antibody (ADCC, ESK-M)” value (TPC1 [1]; 72 hours AST487, then PBMCs and ESK-M 5 hours) turn out when `CCN1CCN(Cc2ccc(NC(=O)Nc3ccc(Oc4cc(NC)ncn4)cc3)cc2C(F)(F)F)CC1` [AST487, 1-[4-[(4-ethylpiperazin-1-yl)methyl]-3-(trifluoromethyl)phenyl]-3-[4-[6-(methylamino)pyrimidin-4-yl]oxyphenyl]urea] was run?
**A.** The value was “increased”.

**Q.** And the ESK binding (TPC1 [1]; different doses)?
**A.** Its ESK binding is “increase”.

**Q.** And the “pRET and pERK” value (pRET and pERK)?
**A.** The value was “decrease”.

**Q.** What about the “HLA class I surface expression” value (TPC1 [2]) of the same molecule?
**A.** The value was “increased”.

**Q.** And the “HLA-A02 expression (BB7 binding) on the surface of the tumor cells” value (TPC1 cells; 10 mg/kg or 35 mg/kg)?
**A.** Its value is “increased”.

**Q.** What about the “pan HLA-ABC expression (W6/32 binding) on the surface of the tumor cells” value (TPC1 cells; 10 mg/kg or 35 mg/kg) of the same molecule?
**A.** The value was “increased”.

**Q.** What about the “expression of PD-L1 by the tumor” value (TPC1 cells; anti-PD-L1 antibody binding) of the same molecule?
**A.** The value was “did not change”.

**Q.** What about the “mRNA levels for HLA and antigen processing machinery” value (TPC1 [3]) of the same molecule?
**A.** Its value is “Upregulation”.

**Q.** And the “surface HLA-A” value (TT cells)?
**A.** The value was “upregulated”.
